Laboratory results published in patent publication US7950396B2, “Treatment for otitis externa” (priority 2006, dated 2011).

How the values were obtained:
MRSA [1] = test: Photodisinfection of MRSA biofilms in vitro (methylene blue plus Periowave laser); type: cell-based, Methicillin-resistant Staphylococcus aureus
Excerpt: (§1) Photodisinfection treatments using methods contemplated by the present invention have been tested against MRSA, Escherichia coli (E. coli), and Enterococcus fecalis (E. fecalis) in vitro and reached high levels of disinfection in within seconds to one minute. Photosensitizing composition comprising of methylene blue at various concentrations ranging from about 0.005 wt % to 0.1 wt % was applied to biofilms of MRSA, E. coli and E. fecalis for about ten seconds. These biofilms were then illuminated by a laser light system at a wavelength of about 665 nm to about 675 nm for a period from about 0 seconds to about 60 seconds (e.g., accumulated energy level of about 0 J/cm^2 to about 9 J/cm^2). The laser light system used was the Periowave™ system which includes a low-intensity laser with power at about 240 mW and the optical probe described in PCT Patent Publication No. WO2006115761.

E. coli [2] = test: Photodisinfection of E. coli biofilms in vitro (methylene blue plus Periowave laser); type: cell-based, Escherichia coli
Excerpt: as §1

E. fecalis = test: Photodisinfection of E. fecalis biofilms in vitro (methylene blue plus Periowave laser); type: cell-based, Enterococcus fecalis; details: methylene blue and low power laser
Excerpt: as §1

MRSA [3] = test: SEM evaluation of MRSA biofilms after photodisinfection; type: cell-based, Methicillin-resistant Staphylococcus aureus; details: about 0.1 wt % methylene blue, about 10 s contact, 665-675 nm for about 30 seconds, Periowave laser
Description: (§2) Biofilms heavily colonized with one to four layers of MRSA organisms were contacted with a photosensitizing composition comprising methylene blue at a concentration of about 0.1 wt % for about 10 seconds and then illuminated at a wavelength of about 665 nm to about 675 nm for a period from about 30 seconds using the Periowave™ laser. Thereafter, these biofilms and the controlled MRSA biofilms (e.g., no photodisinfection treatment) were incubated overnight in 0.9 wt % saline and then fixed in 10 wt % Formalin for scanning electron microscope (SEM) evaluation.

E. coli [4] = test: SEM evaluation of E. coli biofilms after photodisinfection; type: cell-based, Escherichia coli; details: about 0.1 wt % methylene blue, about 10 s contact, 665-675 nm for about 30 seconds, Periowave laser
Description: as §2, with “to three” for “to four”, “of Escherichia coli (E. coli)” for “of MRSA”, “controlled E. coli” for “controlled MRSA”, “incubated for three hours” for “incubated overnight”, “in 0.9%” for “in 0.9 wt %”, “in 10%” for “in 10 wt %”

otitis externa [5] = test: Study on patients suffering otitis externa (photodisinfection, Periowave laser); type: in vivo, human
Description: A study was conducted on patients suffering otitis externa. During the study, a photosensitizing composition comprising of methylene blue at a concentration of about 0.01 wt % was applied using a cotton swab to the treatment site as shown in FIG. 37. Thereafter and referring to FIGS. 38-39, light at a wavelength range from about 665 nm to about 675 nm was applied to the photosensitizing composition located within the treatment site 64 for a period from about 3 minutes to about 5 minutes (3-5 repetitive one minute cycles) using the Periowave™ laser light system.

otitis externa [6] = test: Photodisinfection of otitis externa treatment site (Examples V to VII); type: in vivo
Description: A photosensitizing composition comprising of methylene blue at a concentration of about 0.1 wt % is applied to the otitis externa treatment site. Light at a wavelength range from about 650 nm to about 680 nm is applied to the photosensitizing composition located within the otitis externa treatment site for a period from about 6 minutes to about 10 minutes using a laser with power at about 80 mW. The otitis externa was ameliorated.
A photosensitizing composition comprising of methylene blue at a concentration range of from about 0.001 wt % to about 0.1 wt % is applied to the otitis externa treatment site. Light at a wavelength range from about 650 nm to about 680 nm is applied to the photosensitizing composition located within the treatment site for a period from about 1 minute to about 20 minutes using a laser with power at a range from about 50 mW to about 300 mW. The otitis externa was ameliorated.
A photosensitizing composition comprising of toluidine blue at a concentration range of from about 0.001% wt % to about 0.1 wt % is applied to the otitis externa treatment site. Light at a wavelength range from about 620 nm to about 650 nm is applied to the photosensitizing composition located within the otitis externa treatment site for a period from about 1 minute to about 20 minutes using a laser with power at a range from about 50 mW to about 300 mW. The otitis externa was ameliorated.
For Examples V to VII, it was shown that there is a general inverse relationship between (1) the photosensitizer concentration and (2) the photodisinfection treatment time and/or the amount of power required for the light source. For example, higher concentration of photosensitizer requires less treatment time and/or lower light source power. Conversely, lower concentration of photosensitizer requires longer treatment time and/or higher light source power. Also, less treatment time requires higher concentration of photosensitizer and/or higher light source power.

[7] = at least 0.02 wt % methylene blue, about 10 s contact, laser 665-675 nm for at least 15 seconds (at least 2.25 J/cm^2), 240 mW
[8] = methylene blue and low power laser

SMILES | reduction of MRSA (logs) (MRSA [1]; [7]) | elimination of MRSA by photodisinfection (MRSA [1]; [8]) | reduction of E. coli (logs) (E. coli [2]; [7]) | elimination of E. coli by photodisinfection (E. coli [2]; [8]) | elimination of E. Fecalis by photodisinfection (E. fecalis) | reduction of MRSA in SEM photograph vs controlled biofilm (MRSA [3]) | reduction of E. coli in SEM photograph vs controlled biofilm (E. coli [4]) | outcome of otitis externa, many patients (otitis externa [5]; about 0.01 wt % methylene blue by cotton swab, 665-675 nm for about 3 to 5 minutes (3-5 one minute cycles)) | outcome of otitis externa, patients with severe otitis externa (otitis externa [5]; same protocol, about 2 to about 5 additional treatments over about one to two weeks) | outcome of otitis externa (otitis externa [6]; about 0.001 to 0.1 wt %, 650-680 nm for about 1 to 20 minutes, laser about 50 to 300 mW) | outcome of otitis externa (otitis externa [6]; about 0.1 wt %, 650-680 nm for about 6 to 10 minutes, laser about 80 mW) | outcome of otitis externa (otitis externa [6]; about 0.001 to 0.1 wt %, 620-650 nm for about 1 to 20 minutes, laser about 50 to 300 mW)
CN(C)c1ccc2nc3ccc(=[N+](C)C)cc-3sc2c1 [methylene blue] | at least three logs | effectively eliminated | at least three logs | effectively eliminated | effectively eliminated | substantial reduction of MRSA | substantial reduction of E. coli | ameliorated | also ameliorated | ameliorated | ameliorated | 
Cc1cc2nc3ccc(N(C)C)cc3[s+]c2cc1N.[Cl-] [toluidine blue] |  |  |  |  |  |  |  |  |  |  |  | ameliorated
